The compounds below were run against T1, PD-1/PD-L1 interaction (PD-1-Ig / PD-L1-His) (Homo sapiens, UniProt Q9NZQ7) (assay: PD-1/PD-L1 Homogenous Time-Resolved Fluorescence (HTRF) binding assay). Settings: IC50 range class; PD-L1-His 10 nM, PD-1-Ig 20 nM; read-out: Range or IC50.
T1 construct: hPDL1(18-239)-TVMV-His; TVMV protease site linker (C); made in house; host or cells: HEK293T
Summary of the method: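 Human PD-L1-His (10 nM final) was pre-incubated with inhibitor for 15 min, then PD-1-Ig (20 nM final) was added for a further 15 min in dPBS with 0.1% BSA and 0.05% Tween-20. Binding was detected by HTRF using Eu-cryptate anti-Ig (1 nM) and APC anti-His (20 nM).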

T1 sequence (Q9NZQ7 with tags, fused parts or gaps): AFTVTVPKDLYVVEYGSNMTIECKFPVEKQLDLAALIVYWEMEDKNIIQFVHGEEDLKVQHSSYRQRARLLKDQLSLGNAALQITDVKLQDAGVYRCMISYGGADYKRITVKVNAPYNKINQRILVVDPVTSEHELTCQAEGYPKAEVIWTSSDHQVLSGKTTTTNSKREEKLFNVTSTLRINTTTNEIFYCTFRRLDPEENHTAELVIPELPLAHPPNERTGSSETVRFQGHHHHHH

Compound	IC50 [nM]
Cc1c(COc2cc(OCc3cc(F)cc(F)c3)c(CN(C)[C@@](C)(CO)C(=O)O)cc2Cl)cccc1-c1cccc(COc2cc(OCc3cc(F)cc(F)c3)c(CN(C)[C@@](C)(CO)C(=O)O)cc2Cl)c1C [Example 5014, (2S,2′S)-2,2′-((((((2,2′-dimethyl-[1,1′-biphenyl]-3,3′-diyl)bis(methylene))bis(oxy))bis(5-chloro-2-((3,5-difluorobenzyl)oxy)-4,1-phenylene))bis(methylene))bis(methylazanediyl))bis(3-hydroxy-2-methylpropanoic acid)]	20.1 to 90
Cc1c(NC(=O)NCCN2CC[C@@H](O)C2)cccc1-c1cccc(OCCCN2CC[C@@H](O)C2)c1C [Example 3017, 1-(2-((R)-3-hydroxypyrrolidin-1-yl)ethyl)-3-(3′-(3-((R)-3-hydroxypyrrolidin-1-yl)propoxy)-2,2′-dimethyl-[1,1′-biphenyl]-3-yl)urea]	1000 to 10000
N#Cc1cncc(COc2cc(OCc3cccc(-c4cccc(COc5cc(OCc6cncc(C#N)c6)c(C(=O)NCCCO)cc5Cl)c4Cl)c3Cl)c(Cl)cc2C(=O)NCCCO)c1 [Example 80020]	90.1 to 1000
Cc1c(COc2cc(OCc3cncc(C#N)c3)c(CO)cc2Cl)cccc1-c1cccc(COc2cc(OCc3cncc(C#N)c3)c(CN[C@H](CO)C(=O)O)cc2Cl)c1C [Example 50240]	0.04 to 20
Cc1c(COc2cc(O)c(CN[C@@](C)(CO)C(=O)O)cc2Cl)cccc1-c1cccc(COc2cc(OCc3cncc(C#N)c3)c(CN[C@@](C)(CO)C(=O)O)cc2Cl)c1C [Example 40130]	0.04 to 20
N#Cc1cncc(COc2cc(OCc3cccc(-c4cccc(COc5cc(OCc6cncc(C#N)c6)c(CN6CCCC[C@H]6C(=O)O)cc5Cl)c4)c3)c(Cl)cc2CN2CCCC[C@H]2C(=O)O)c1 [Example 40050]	0.04 to 20
Cc1c(COc2cc(OCc3cncc(C#N)c3)c(CN3CCCC[C@H]3C(=O)O)cc2Cl)cccc1-c1cccc(COc2cc(OCc3cncc(C#N)c3)c(CN3CCCC[C@H]3C(=O)O)cc2Cl)c1C [Example 2119, (2S,2′S)-1,1′-(((((2,2′-dimethyl-[1,1′-biphenyl]-3,3′-diyl)bis(methylene))bis(oxy))bis(5-chloro-2-((5-cyanopyridin-3-yl)methoxy)-4,1-phenylene))bis(methylene))bis(piperidine-2-carboxylic acid)]	0.04 to 20
Cc1c(COc2cc(OCc3cncc(C#N)c3)c(CO)cc2Cl)cccc1-c1cccc(COc2cc(OCc3cncc(C#N)c3)c(CNC(C(=O)O)C(C)O)cc2Cl)c1C (stereo not shown) [Example 50200]	0.04 to 20
Cc1cc(OCCCN2CC[C@@H](O)C2)ccc1-c1cccc(OCCCCCN2CC[C@@H](O)C2)c1C [Example 3005, (R)-1-(3-((3′-((5-((R)-3-hydroxypyrrolidin-1-yl)pentyl)oxy)-2,2′-dimethyl-[1,1′-biphenyl]-4-yl)oxy)propyl)pyrrolidin-3-ol]	1000 to 10000
N#Cc1cncc(COc2cc(OCc3cccc(-c4cccc(COc5cc(OCc6cncc(C#N)c6)c(C(=O)NCC6CCCO6)cc5Cl)c4Cl)c3Cl)c(Cl)cc2C(=O)O)c1 (stereo not shown) [Example 90060]	1000 to 10000
Cc1c(COc2cc(OCc3cncc(C#N)c3)c(CO)cc2Cl)cccc1-c1cccc(COc2cc(OCc3cncc(C#N)c3)c(CN3CCC[C@H](C(=O)O)C3)cc2Cl)c1C [Example 50120]	0.04 to 20
Cc1c(OCCCN2CCN(C)C(=O)C2)cccc1-c1cccc(OCCCN2CC[C@@H](O)C2)c1C [Example 2036, (R)-4-(3-((3′-(3-(3-hydroxypyrrolidin-1-yl)propoxy)-2,2′-dimethyl-[1,1′-biphenyl]-3-yl)oxy)propyl)-1-methylpiperazin-2-one]	90.1 to 1000

Same assay, conditions: numeric IC50; PD-L1-His 10 nM, PD-1-Ig 20 nM; read-out: Range or IC50

Compound	IC50 [nM]
Cc1c(COc2cc(OCc3cncc(C#N)c3)c(CO)cc2Cl)cccc1-c1cccc(COc2cc(OCc3cncc(C#N)c3)c(CNC(C(=O)O)C(=O)O)cc2Cl)c1C [Example 50270]	23
